This note sets out measurements from patent publication US20050036977A1, “Taste-masked resinate and preparation thereof” (priority 2003, published 2005).

Where two headings read alike, the source gives them in different places.

For this data set the following is noted: initial risperidone 15 mg/mL, control value = solubility of risperidone.

Experimental: The resin and risperidone were added to either water, citrate-phosphate buffer at pH 5.93 or a 1.7% gelatin solution (Table 1a). The initial concentration of risperidone in the slurries was 15 mg/mL. The control consisted of risperidone in each of the three aqueous media.
Each slurry was placed into centrifuge tubes, capped and mixed with a Burrell Wrist action shaker model 75 for 24 hours. After 24 hours, the slurry was centrifuged at a relative centrifugal force of 38,724 g for 18 minutes. The supernatant was collected, filtered through a 0.45 μl nylon filter and assayed for risperidone by an isocratic HPLC method. The concentration of drug present in the supernatant represented the amount of unbound or “free” risperidone.

Consider `Cc1nc2n(c(=O)c1CCN1CCC(c3noc4cc(F)ccc34)CC1)CCCC2` [Risperidone (Control), risperidone], for which the “Concentration of Risperidone in Supernatant after 24 Hours Mixing” value stood at 1062.1 µg/mL (1.7% Gelatin), 4603.6 µg/mL (Citrate-Phosphate Buffer (pH 5.93)) and 85.82 µg/mL (Purified Water).
